Laboratory results published in the supplement of paper PMC10307832.

Tests used:
Assay in all cases: relative viability (nuclei count vs DMSO), 5 days (fraction); higher = more cells survive
[1] = compound: O=S(=O)(c1ccccc1)N(CC(F)(F)F)c1ccc(C(O)(C(F)(F)F)C(F)(F)F)cc1 + CS(=O)(=O)CCNCc1ccc(-c2ccc3ncnc(Nc4ccc(OCc5cccc(F)c5)c(Cl)c4)c3c2)o1 [Lapatinib] (partner 2 µM)
In short: (§1)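 Relative viability equals treated-well nuclei counts divided by vehicle-well nuclei counts. Counts came from 4× images of lung cancer cell lines grown in 1536-well plates for 5 days after pin-tool dosing on the day after seeding. Dosing used one drug alone or a fixed anchor-drug dose plus five library-drug doses (not always all listed) in √10 steps, and values are medians of duplicate plates.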

[2] = compound: C1=CC2=C(C=CC(=C2)C=C3C(=O)NC(=NCC4=CC=CS4)S3)N=C1 [RO-3306] + Cc1cc(Nc2cc(N3CCN(C)CC3)nc(Sc3ccc(NC(=O)C4CC4)cc3)n2)n[nH]1 [Tozasertib] (partner 0.1 µM)
In short: as §1

[3] = compound: C1=CC2=C(C=CC(=C2)C=C3C(=O)NC(=NCC4=CC=CS4)S3)N=C1 [RO-3306] + C[C@]1(O)C[C@@H](c2nc(-c3ccc4ccc(-c5ccccc5)nc4c3)c3c(N)nccn32)C1 [Linsitinib] (partner 1 µM)
In short: as §1

[4] = compound: C1=CC2=C(C=CC(=C2)C=C3C(=O)NC(=NCC4=CC=CS4)S3)N=C1 [RO-3306] + O=C(c1cc(Cc2n[nH]c(=O)c3ccccc23)ccc1F)N1CCN(C(=O)C2CC2)CC1 [Olaparib] (partner 8 µM)
In short: as §1

Cell Line | relative viability ([1]; first compound 0.8 µM) | relative viability ([1]; first compound 2.53 µM) | relative viability ([1]; first compound 8 µM) | relative viability ([2]; first compound 0.01 µM) | relative viability ([2]; first compound 0.03162 µM) | relative viability ([2]; first compound 0.1 µM) | relative viability ([2]; first compound 0.3162 µM) | relative viability ([2]; first compound 1 µM) | relative viability ([3]; first compound 0.01 µM) | relative viability ([3]; first compound 0.03162 µM) | relative viability ([3]; first compound 0.1 µM) | relative viability ([3]; first compound 0.3162 µM) | relative viability ([3]; first compound 1 µM) | relative viability ([4]; first compound 0.01 µM) | relative viability ([4]; first compound 0.1 µM) | relative viability ([4]; first compound 0.3162 µM) | relative viability ([4]; first compound 1 µM) | relative viability ([4]; first compound 0.03162 µM)
NCI-H23 | 1.24 | 1.24 | 1.14 | 0.279 | 0.304 | 0.394 | 0.124 | 0.301 | 0.774 | 0.443 | 0.633 | 0.514 | 0.569 | 0.333 | 0.25 | 0.307 | 0.268 | 
NCI-H322M | 0.684 | 0.602 | 0.655 | 0.549 | 0.467 | 0.443 | 0.476 | 0.432 | 0.978 | 0.709 | 0.923 | 1.02 | 1.03 | 0.817 | 0.773 | 0.785 | 0.696 | 0.743
NCI-H358 | 0.434 | 0.383 | 0.417 | 0.0852 | 0.0922 | 0.103 | 0.102 | 0.101 | 0.827 | 0.642 | 0.656 | 0.892 | 0.517 | 0.779 | 0.583 | 0.596 | 0.468 | 0.485
NCI-H460 |  | 0.834 | 0.779 | 0.217 | 0.542 | 0.392 | 0.116 | 0.0669 | 1.14 |  | 0.901 | 1.3 | 0.889 | 0.412 | 0.464 | 0.442 | 0.466 | 0.363
NCI-H520 | 1.07 | 0.84 | 1.01 | 0.44 | 0.481 | 0.39 | 0.426 | 0.394 | 1.05 | 0.872 | 0.82 | 1.2 | 0.824 | 0.359 | 0.315 | 0.344 | 0.351 | 0.244
NCI-H596 | 0.999 | 0.828 | 0.998 | 0.837 | 0.712 | 0.771 | 0.834 | 0.794 | 0.954 | 0.903 | 1.15 | 1.04 | 1.04 | 0.675 | 0.616 | 0.672 | 0.569 | 0.669
NCI-H647 | 1.52 | 1.17 | 1.2 | 0.333 | 0.0513 | 0.304 | 0.269 | 0.158 | 1.43 | 1.07 | 1.21 | 1.29 | 1.07 | 0.86 | 0.487 | 0.686 | 0.623 | 0.212
NCI-H650 | 1.24 | 0.804 | 1.12 | 0.682 | 0.695 | 0.718 | 0.739 | 0.603 | 0.598 | 0.672 | 0.721 | 0.859 | 0.748 | 0.316 | 0.37 | 0.382 | 0.361 | 0.373
NCI-H661 | 0.606 | 0.466 | 0.465 | 0.333 | 0.382 | 0.351 | 0.339 | 0.337 | 0.569 | 0.458 | 0.581 | 0.586 | 0.728 | 0.751 | 0.741 | 0.755 | 0.818 | 0.754
NCI-H727 | 0.844 | 0.646 | 0.738 | 0.706 | 0.644 | 0.498 | 0.613 | 0.573 | 0.464 | 0.221 | 0.28 | 0.277 | 0.35 | 0.666 | 0.844 | 0.724 | 0.621 | 0.722
NCI-H838 | 1.23 | 0.947 | 1.06 | 0.308 | 0.283 | 0.255 | 0.258 | 0.264 | 1.11 | 0.742 | 1.05 | 1.15 | 0.92 | 0.894 | 0.768 | 0.808 | 0.869 | 0.562
NCI-H1355 | 1.04 | 0.961 | 0.926 | 0.473 |  | 0.532 | 0.515 | 0.491 | 1.04 | 0.802 | 0.763 | 0.929 | 0.799 | 0.682 | 0.738 | 0.8 | 0.786 | 0.659
NCI-H1395 | 1.1 | 0.993 | 1.13 | 0.635 | 0.681 | 0.749 | 0.696 | 0.643 | 1.1 | 0.954 | 1.06 | 1.02 | 1.04 | 0.503 | 0.491 | 0.425 | 0.408 | 0.488
NCI-H1437 | 0.861 | 0.651 | 0.622 | 0.485 | 0.328 | 0.384 | 0.397 | 0.474 | 1.15 | 0.673 | 0.945 | 1.03 | 1.1 | 0.628 | 0.614 | 0.588 | 0.619 | 0.564
NCI-H1651 | 0.9 | 0.821 | 0.847 | 0.713 | 0.589 | 0.755 | 0.57 | 0.446 | 0.956 | 0.927 | 0.922 | 1.18 | 0.977 | 0.177 | 0.181 | 0.174 | 0.177 | 0.168
NCI-H1666 | 0.725 | 0.625 | 0.408 | 0.64 | 0.588 | 0.59 | 0.631 | 0.59 | 0.829 | 0.693 | 0.684 | 0.823 | 0.834 | 0.749 | 0.693 | 0.685 | 0.729 | 0.749
NCI-H1734 | 1.24 | 1.13 | 0.934 | 0.233 | 0.256 | 0.247 | 0.304 | 0.274 | 1.05 | 0.578 | 0.823 | 0.891 | 0.836 | 0.703 | 0.632 | 0.622 | 0.551 | 0.515
NCI-H1755 | 1.15 | 0.797 | 1 | 0.577 | 0.688 | 0.514 | 0.547 | 0.554 | 1.05 | 1 | 1.02 | 0.995 | 1.09 | 0.973 | 0.867 | 0.839 | 0.953 | 0.902
